Experimental data published in patent US12104169B2, “Chemical reprogramming to generate neuronal cells” (The J. David Gladstone Institutes, a testamentary trust …, priority 2015, dated 2024).
Counter-ions that a name gives are not always drawn.

Legend:
SAPK2/p38 = SAPK2/p38 (Homo sapiens, UniProt Q16539); details: CK1 and ALK5 inhibitor versus SAPK2/p38; cited from earlier work
tdMEF [1] = assay: M9 chemical conversion of tdMEFs to ciNSLCs (Sox2/Nestin immunostaining); type: cell-based, mouse; details: FIG. 2G
Description: To convert the fibroblasts into ciNSLCs, MEFs were seeded into Matrigel (Corning, 1:40 dilution)-coated 24-well plates at 15,000 per well, or 1-1.5 million in 15-cm dishes in MEF medium (Dulbecco's modified Eagle's medium supplemented with 10% FBS, 0.1 mM nonessential amino acids, and 2 mM Glutamax) for the first 24 hours. […] M9 medium was refreshed every other day. After a 10-day induction, cells were cultured in neural stem cells medium (NSC medium). Afterwards, the cells could be repeatedly propagated in NSC medium.
Cells were washed once with 1×PBS and fixed with 4% paraformaldehyde at room temperature for 10 minutes, followed by permeabilization with 0.2% Triton X-100 in 1×PBS for 10 min, and blocking with 7.5% BSA for at least 1 hour. All primary antibodies were diluted in 1×PBS with 7.5% BSA, and the incubation was performed at 4° C. overnight. The cells were washed with 1×PBS five times for 10 min each at room temperature. The secondary antibodies, labeled with Alexa-488, Alexa-555, and Alexa-647, were purchased from Invitrogen, and were diluted into 1×PBS with 7.5% BSA. Incubation with the secondary antibodies was for 1 hour at room temperature, followed by five 10-minute washes with 1×PBS. The nuclei were stained with DAPI. Living cell staining was used for cell-surface marker O4, as described by Najm et al. (Nat. Biotechnol. 31: 426-433 (2013)). […]

[2] = system: A53T alpha-synuclein clearance in PC-12 cells; details: independent of rapamycin treatment; cited from earlier work
tdMEFs = assay: Combinatorial chemical screening for neural reprogramming of tdMEFs (Sox2/Nestin co-expression); type: cell-based, mouse; details: for generation of Sox2/Nestin double-positive cells: added to the six-molecule condition; for Sox2/Nestin double-positive cells: primary screening, single molecule added to basal condition (LDN, A83, CHIR, bFGF), ten days post-treatment
Description: Cells were washed once with 1×PBS and fixed with 4% paraformaldehyde at room temperature for 10 minutes, followed by permeabilization with 0.2% Triton X-100 in 1×PBS for 10 min, and blocking with 7.5% BSA for at least 1 hour. All primary antibodies were diluted in 1×PBS with 7.5% BSA, and the incubation was performed at 4° C. overnight. The cells were washed with 1×PBS five times for 10 min each at room temperature. The secondary antibodies, labeled with Alexa-488, Alexa-555, and Alexa-647, were purchased from Invitrogen, and were diluted into 1×PBS with 7.5% BSA. Incubation with the secondary antibodies was for 1 hour at room temperature, followed by five 10-minute washes with 1×PBS. The nuclei were stained with DAPI. Living cell staining was used for cell-surface marker O4, as described by Najm et al. (Nat. Biotechnol. 31: 426-433 (2013)). Antibodies used in this study are listed below in Table 1.
Briefly, tdMEFs were plated into neural reprogramming basal medium at 15,000 cells per well in 24-well plate, and after an overnight culture, individual small molecules from a focused chemical collection, including epigenetic modifiers, metabolism regulators, and signaling modulators, were added. Ten days post-treatment, cells were fixed, immune-stained, and analyzed for co-expression of Sox2 and Nestin, two typical NSC markers (FIG. 1A-1B).

ciNSLC-derived neurons = type: cell-based, mouse
tdMEF [3] = assay: Inhibitor assay: pathway inhibitors added to M9 reprogramming; type: cell-based, mouse; details: Sox2+/Nestin+ cells at day 10
Description: When performing the reprogramming, small molecule inhibitors, including 0.5 μM PD0325901, 10 μM SP 600125, 5 μM SB203580, 5 μM LY294002, or 2 μM LDE 225, was added in the freshly made M9 culture medium. DMSO was used in basal medium as control. The medium was changed every 2 days, and the Sox2+/Nestin+ cells were analyzed by immunostaining by day 10 after treatment.

Hedgehog (Hh) signaling = details: read-out: EC50 activation of Hedgehog (Hh) signaling; cited from earlier work
[4] = system: Hedgehog signaling pathway in Shh-light 2 cells; details: read-out: EC50 activation of Hedgehog signaling pathway; cited from earlier work
[5] = target: Smoothened (Smo) receptor (Homo sapiens, UniProt Q99835); details: cited from earlier work
Smoothened (Smo) receptor, sequence (Q99835 28-787): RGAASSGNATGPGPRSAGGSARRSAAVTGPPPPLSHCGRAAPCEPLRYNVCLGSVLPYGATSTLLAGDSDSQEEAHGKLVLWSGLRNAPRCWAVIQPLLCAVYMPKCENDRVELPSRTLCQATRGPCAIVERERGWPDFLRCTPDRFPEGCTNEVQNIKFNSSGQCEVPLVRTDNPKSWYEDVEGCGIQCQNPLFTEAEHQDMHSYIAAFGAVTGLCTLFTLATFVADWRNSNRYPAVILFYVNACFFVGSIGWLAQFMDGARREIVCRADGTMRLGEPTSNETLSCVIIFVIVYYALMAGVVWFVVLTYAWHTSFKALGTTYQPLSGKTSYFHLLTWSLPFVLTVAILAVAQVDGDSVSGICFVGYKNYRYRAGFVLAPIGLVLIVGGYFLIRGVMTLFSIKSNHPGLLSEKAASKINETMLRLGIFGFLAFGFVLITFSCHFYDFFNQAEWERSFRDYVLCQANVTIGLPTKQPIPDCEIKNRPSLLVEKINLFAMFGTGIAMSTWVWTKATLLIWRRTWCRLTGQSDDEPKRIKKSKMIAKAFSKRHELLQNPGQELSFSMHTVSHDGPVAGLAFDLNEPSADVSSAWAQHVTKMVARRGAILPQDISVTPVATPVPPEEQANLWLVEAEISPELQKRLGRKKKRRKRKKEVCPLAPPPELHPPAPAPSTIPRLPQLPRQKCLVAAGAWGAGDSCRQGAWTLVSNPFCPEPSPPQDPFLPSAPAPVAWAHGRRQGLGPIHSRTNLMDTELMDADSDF

SAPK2/p38, sequence (Q16539 whole entry): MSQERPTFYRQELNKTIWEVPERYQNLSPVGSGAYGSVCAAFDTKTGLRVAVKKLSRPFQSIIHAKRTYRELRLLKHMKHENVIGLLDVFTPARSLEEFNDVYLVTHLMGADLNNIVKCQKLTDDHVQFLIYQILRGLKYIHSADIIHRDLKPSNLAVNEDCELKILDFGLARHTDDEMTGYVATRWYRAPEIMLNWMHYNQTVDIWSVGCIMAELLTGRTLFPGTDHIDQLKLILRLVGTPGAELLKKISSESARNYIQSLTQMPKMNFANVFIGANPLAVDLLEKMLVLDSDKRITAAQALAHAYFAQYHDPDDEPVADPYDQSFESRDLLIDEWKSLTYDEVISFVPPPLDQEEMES

With `NC(=O)c1ccc(-c2nc(-c3ccc4c(c3)OCCO4)c(-c3ccccn3)[nH]2)cc1` [D 4476, 4-[4-(2,3-Dihydro-1,4-benzodioxin-6-yl)-5-(2-pyridinyl)-1H-imidazol-2-yl]benzamide] as the compound, how does the “selectivity over SAPK2/p38” value (SAPK2/p38) read?
Its value is “greater than 20 fold”.

With “bFGF: basic fibroblast growth factor (bFGF; also known as FGF2)” as the compound, how does the “reprogramming efficiency when the component is removed from the M9 cocktail” value (tdMEF [1]) read?
The value was “affected the ciNSLC induction most”.

Which A53T alpha-synuclein clearance [2] does the source give for `C=CCNc1ncnc2ccc(Br)cc12` [SMER28, 6-bromo-N-2-propenyl-4-quinazolinamine] here?
The A53T alpha-synuclein clearance was “enhances”.

And the “generation of Sox2/Nestin double-positive cells” value (tdMEFs)?
Its value is “further enhanced”.

Which “reprogramming efficiency when the component is removed from the M9 cocktail” value (tdMEF [1]) does the source give for `CNC1CCC(N(Cc2cccc(-c3ccncc3)c2)C(=O)c2sc3c(F)ccc(F)c3c2Cl)CC1` (stereo not shown) [Hh-Ag 1.5, 3-chloro-4,7-difluoro-N-(4-(methylamino)cyclohexyl)-N-(3-(pyridin-4-yl)benzyl)benzo[b]thiophene-2-carboxamide] here?
Its value is “affected the ciNSLC induction most”.

And the Sox2/Nestin double-positive cells (tdMEFs)?
Its Sox2/Nestin double-positive cells is 3.68%.

For `NC1=N[C@H](O)[C@H]2[C@H]3O[C@]4(O)O[C@@H]([C@@H](O)[C@@]2(N1)[C@@H]4O)[C@]3(O)CO` [tetrodotoxin], which inactivating inward current (ciNSLC-derived neurons) is on record?
Its inactivating inward current is “blocked”.

Which “generation of Sox2/Nestin double-positive cells” value (tdMEFs) does the source give for `N[C@@H]1C[C@H]1c1ccccc1` (racemic) [Parnate, tranylcypromine sulfate] here?
Its value is “further enhanced”.

For `Cc1c(C(=O)Nc2ccc(N3C[C@@H](C)O[C@@H](C)C3)nc2)cccc1-c1ccc(OC(F)(F)F)cc1` [LDE-225], which “reduction of reprogramming efficiency” value (tdMEF [3]; 2 μM added to M9 medium) is on record?
The value was “about 6 fold”.

Which “reduction of reprogramming efficiency” value (tdMEF [3]; 0.5 μM added to M9 medium) does the source give for `O=C(NOC[C@H](O)CO)c1ccc(F)c(F)c1Nc1ccc(I)cc1F` [PD0325901] here?
Its value is “about 9 fold”.

Which “reduction of reprogramming efficiency” value (tdMEF [3]; 5 μM LY294002 added to M9 medium) does the source give for `O=c1cc(N2CCOCC2)oc2c(-c3ccccc3)cccc12` [LY294002] here?
Its value is roughly 4 fold.

For `CC[N+](CC)(CC)CC` [tetraethylammonium], which persistent outward current (ciNSLC-derived neurons) is on record?
Its persistent outward current is “blocked”.

Which “generation of Sox2/Nestin double-positive cells” value (tdMEFs) does the source give for `O=C(O)[C@@H](Cc1c[nH]c2ccccc12)N1C(=O)c2ccccc2C1=O` (stereo in doubt) [RG108, N-Phthalyl-L-tryptophan] here?
Its value is “further enhanced”.

Which EC50 (Hedgehog (Hh) signaling) does the source give for `CC(C)CCC[C@](C)(O)[C@H]1CC[C@H]2[C@@H]3CC=C4C[C@@H](O)CC[C@]4(C)[C@H]3CC[C@@]21C` [(3β)-Cholest-5-ene-3,20-diol] here?
Its EC50 is roughly 3000 nM.

With `CN[C@H]1CC[C@H](N(Cc2cccc(-c3ccncc3)c2)C(=O)c2sc3ccccc3c2Cl)CC1` [SAG, 3-Chloro-N-[trans-4-(methylamino)cyclohexyl]-N-[[3-(4-pyridinyl)phenyl]methyl]benzo[b]thiophene-2-carboxamide] as the compound, how does the EC50 [4] read?
The EC50 was roughly 3 nM.

What about the Kd [5] of the same compound?
Its Kd is 59 nM.

Which “reduction of reprogramming efficiency” value (tdMEF [3]; 5 μM SB203580 added to M9 medium) does the source give for `C[S+]([O-])c1ccc(-c2nc(-c3ccc(F)cc3)c(-c3ccncc3)[nH]2)cc1` (stereo not shown) [SB203580] here?
Its value is roughly 5 fold.

Which Sox2/Nestin double-positive cells (tdMEFs) does the source give for `CC1=C(/C=C/C(C)=C/C=C/C(C)=C/C(=O)O)C(C)(C)CCC1` [retinoic acid] here?
Its Sox2/Nestin double-positive cells is 1.26%.

Which “reduction of reprogramming efficiency” value (tdMEF [3]; 10 μM added to M9 medium) does the source give for `Oc1c2ccccc2c2c3c(cccc13)N=N2` [SP600125] here?
Its value is roughly 6 fold.
